# Data: patent publication US20240325369A1 (priority 2021, published 2024)
# Several values for one entry are separate records, joined by “and”; a condition that tells them apart may be missing. Equal values may be shown once. Read-outs that look alike come from different tables or passages of the source.
# System: metastatic castration-resistant prostate cancer (mCRPC) with DNA-repair anomalies
# Experimental: The planned sample size was approximately 120 subjects with measurable disease who were biomarker-positive (approximately 75 subjects with DNA repair anomalies in BRCA [BRCA1 or BRCA2] and approximately 45 subjects with biallelic DNA-repair anomalies in non-BRCA [ATM, FANCA, PALB2, CHEK2, BRIP1, or HDAC2]).
# Efficacy objectives were evaluated for subjects meeting the biomarker selection criteria described in the protocol. All subjects were monitored for safety during the study period, and up to 30 days after the last dose of study drug. Treatment continued until disease progression, unacceptable toxicity, death, or termination of the study by the sponsor.
# Diagnosis and Main Criteria for Inclusion: The target population consisted of male subjects over the age of 18 years with mCRPC and DNA-repair anomalies (biallelic mutations and germline pathogenic mutations only for BRCA1 or BRCA2 mutations) who had received at least 1 prior taxane-based chemotherapy and at least 1 prior AR targeted therapy (second-generation or later). Subjects were asked to provide a tumor tissue sample (archival or recently collected, if available), and a blood sample for analysis of DNA-repair anomalies using a sponsor-validated assay.
# Criteria for Evaluation: Efficacy assessments included chest, abdomen, and pelvis CT or MRI scans and whole-body bone scans (^99mTc) to evaluate objective response and disease progression.
# The primary endpoint was ORR and summarized for the BRCA analysis set along with the 95% 2-sided exact CI. In addition, the counts and percentage of subjects in each response category (CR. PR, etc.) were tabulated. ORR in non-BRCA subjects was analyzed in the same way.
# Descriptive summaries of CTC response were generated for BRCA and non-BRCA analysis sets, measurable and non-measurable subgroups and tabulated with its 2-sided 95% exact CI. Waterfall plots of percent change in CTC were also presented, showing the percentage change in CTC counts from baseline to 8 weeks, as well as maximal CTC count declines. All time to event secondary endpoints were evaluated using Kaplan-Meier method for BRCA and non-BRCA analysis sets. Median time to event and the corresponding 95% CI were provided. Descriptive summaries were provided for BRCA and non-BRCA analysis sets.
# Time to degradation was determined using the following meaningful change threshold values: FACT-P Total (10-point reduction from baseline), EQ-5D-5L Index (0.09-point reduction from baseline). EQ-5D-5L VAS (10-point reduction from baseline), and BPI SF worst pain intensity item (30% reduction from baseline).
# The primary endpoint was ORR, defined as the proportion of subjects with BRCA DNA-repair anomalies and measurable disease whose best response was either CR or PR as defined by RECIST 1.1 (Eisenhauer et al 2009) and who had no evidence of bone progression according to the PCWG3 criteria (Scher et al 2016).
# ORR final analysis was performed approximately 6 months from Cycle 1 Day 1 of the last subject with a BRCA DNA-repair anomaly and measurable disease. Objective response as determined by investigator assessment was considered as the primary analysis.
# Subjects who discontinued the study without a response assessment were considered as non-responders in the analysis. The objective response rate was calculated and its 2-sided 95% exact CI presented. In addition, the counts and percentage of subjects in each response category (CR, PR, etc.) were tabulated.
# The following analyses of CTC response were performed for BRCA and non-BRCA analysis sets, measurable and non-measurable subgroups: • Descriptive summaries • CTC response rate was tabulated with its 2-sided 95% exact CI
# All time to event secondary endpoints were evaluated using Kaplan-Meier method for BRCA and non-BRCA analysis sets. Median time to event and the corresponding 95% CI were provided. Descriptive summaries were provided for BRCA and non-BRCA analysis sets.
# [1] = ALL, ITT (N=223), 300 mg once daily
# [2] = ALL, ITT (N=223), 300 mg once daily, listed as niraparib
# [3] = ALL, ITT (N=223), Kaplan-Meier, 300 mg once daily
# [4] = ALL, ITT with baseline CTC >0 (N=202), 300 mg once daily
# [5] = ALL, measurable ITT (N=123), 300 mg once daily
# [6] = ALL, measurable ITT responders (N=31), 300 mg once daily
# [7] = ALL, measurable ITT responders (N=31), Kaplan-Meier, 300 mg once daily
# [8] = BRCA (n = 142), 300 mg once daily
# [9] = BRCA, ITT (N=142), 300 mg once daily
# [10] = BRCA, ITT (N=142), 300 mg once daily, listed as niraparib
# [11] = BRCA, ITT (N=142), Kaplan-Meier, 300 mg once daily
smiles,measurement,setting,value
"NC(=O)c1cccc2cn(-c3ccc([C@@H]4CCCNC4)cc3)nc12 [Niraparib, 2-[4-[(3S)-piperidin-3-yl]phenyl]-2H-indazole-7-carboxamide]",Duration of complete response in individual subjects,"2 BRCA subjects with measurable disease and complete response, 300 mg once daily",9.7 months and 9.5 months
same,Time to PSA progression: 6-month event-free rate,[1],0.328
same,Time to PSA progression: 12-month event-free rate,[1],0.053
same,"Time to PSA progression: Censored, % of subjects",[1],(44.4%)
same,"Time to PSA progression: Censored, number of subjects",[1],99
same,"Time to PSA progression: Event, % of subjects",[1],(55.6%)
same,"Time to PSA progression: Event, number of subjects",[1],124
same,Time to radiographic progression: 6-month event-free rate,[1],0.494
same,Time to radiographic progression: 12-month event-free rate,[1],0.170
same,Time to radiographic progression: 18-month event-free rate,[1],0.034
same,"Time to radiographic progression: Censored, % of subjects",[1],(39.9%)
same,"Time to radiographic progression: Censored, number of subjects",[1],89
same,"Time to radiographic progression: Event, % of subjects",[1],(60.1%)
same,"Time to radiographic progression: Event, number of subjects",[1],134
same,Time to symptomatic skeletal event: 6-month event-free rate,[1],0.830
same,Time to symptomatic skeletal event: 12-month event-free rate,[1],0.511
same,Time to symptomatic skeletal event: 18-month event-free rate,[1],0.297
same,Time to symptomatic skeletal event: 24-month event-free rate,[1],0.297
same,"Time to symptomatic skeletal event: Censored, % of subjects",[1],(70.9%)
same,"Time to symptomatic skeletal event: Censored, number of subjects",[1],158
same,"Time to symptomatic skeletal event: Event, % of subjects",[1],(29.1%)
same,"Time to symptomatic skeletal event: Event, number of subjects",[1],65
same,rPFS: 6-month event-free rate,[1],0.475
same,rPFS: 12-month event-free rate,[1],0.155
same,rPFS: 18-month event-free rate,[1],0.031
same,"rPFS: Censored, % of subjects",[1],(35.4%)
same,"rPFS: Censored, number of subjects",[1],79
same,"rPFS: Event, % of subjects",[1],(64.6%)
same,"rPFS: Event, number of subjects",[1],144
same,"Time to PSA progression: Event, % of subjects",[2],56%
same,"Time to radiographic progression: Event, % of subjects",[2],60%
same,"Time to symptomatic skeletal event: Event, % of subjects",[2],29%
same,"Time to symptomatic skeletal event: Event, number of subjects",[2],Sixty-five
same,"rPFS: Event, % of subjects",[2],65%
same,"Time to PSA progression: time to event, 25th percentile",[3],2.83 months
same,"Time to PSA progression: time to event, Median",[3],4.63 months
same,"Time to radiographic progression: time to event, 25th percentile",[3],2.76 months
same,"Time to radiographic progression: time to event, 75th percentile",[3],11.07 months
same,"Time to radiographic progression: time to event, Median",[3],5.78 months
same,"Time to symptomatic skeletal event (SSE): time to event, Median",[3],12.88 months
same,"Time to symptomatic skeletal event: time to event, 25th percentile",[3],6.97 months
same,"rPFS: time to event, 25th percentile",[3],2.07 months
same,"rPFS: time to event, 75th percentile",[3],11.01 months
same,"CTC Response (CTC = 0 at week 8), % of subjects",[4],(18.3%)
same,"CTC Response (CTC = 0 at week 8), number of subjects",[4],37
same,"Best Overall Response: Complete Response (CR), % of subjects",[5],1.6%
same,"Best Overall Response: Complete Response (CR), number of subjects",[5],2
same,"Best Overall Response: Not Available (NA), % of subjects",[5],12.2%
same,"Best Overall Response: Not Available (NA), number of subjects",[5],15
same,"Best Overall Response: Partial Response (PR), % of subjects",[5],23.6%
same,"Best Overall Response: Partial Response (PR), number of subjects",[5],29
same,"Best Overall Response: Progressive Disease (PD), % of subjects",[5],25.2%
same,"Best Overall Response: Progressive Disease (PD), number of subjects",[5],31
same,"Best Overall Response: Stable Disease (SD), % of subjects",[5],37.4%
same,"Best Overall Response: Stable Disease (SD), number of subjects",[5],46
same,"ORR (objective response rate, RECIST 1.1, no bone progression per PCWG3), % of subjects",[5],25.2%
same,"ORR (objective response rate, RECIST 1.1, no bone progression per PCWG3), number of subjects",[5],31
same,"Objective response confirmed: Complete Response (CR), % of subjects",[5],1.6%
same,"Objective response confirmed: Complete Response (CR), number of subjects",[5],2
same,"Objective response confirmed: Partial Response (PR), % of subjects",[5],23.6%
same,"Objective response confirmed: Partial Response (PR), number of subjects",[5],29
same,Duration of objective response: 6-month event-free rate,[6],0.471
same,Duration of objective response: 12-month event-free rate,[6],0.000
same,Duration of objective response: 18-month event-free rate,[6],0.000
same,Duration of objective response: 24-month event-free rate,[6],0.000
same,"Duration of objective response: Censored, % of subjects",[6],(22.6%)
same,"Duration of objective response: Censored, number of subjects",[6],7
same,"Duration of objective response: Event, % of subjects",[6],(77.4%)
same,"Duration of objective response: Event, number of subjects",[6],24
same,"Duration of objective response: time to event, 25th percentile",[7],3.75 months
same,"Duration of objective response: time to event, 75th percentile",[7],7.20 months
same,"Duration of objective response: time to event, Median",[7],5.55 months
same,"CRR (composite response rate), % of subjects",[8],57.7%
same,"CRR (composite response rate), number of subjects",[8],82
same,"PSA50 (≥50% decline in prostate-specific antigen), % of subjects",[8],43.0%
same,"PSA50 (≥50% decline in prostate-specific antigen), number of subjects",[8],61
same,Median rPFS in the BRCA cohort relative to the non-BRCA cohort,BRCA vs non-BRCA cohort,approximately double
same,Time to PSA progression: 6-month event-free rate,[9],0.393
same,Time to PSA progression: 12-month event-free rate,[9],0.067
same,"Time to PSA progression: Censored, % of subjects",[9],(40.1%)
same,"Time to PSA progression: Event, % of subjects",[9],(59.9%)
same,Time to radiographic progression: 6-month event-free rate,[9],0.593
same,Time to radiographic progression: 12-month event-free rate,[9],0.234
same,Time to radiographic progression: 18-month event-free rate,[9],0.046
same,"Time to radiographic progression: Censored, % of subjects",[9],(43.0%)
same,"Time to radiographic progression: Censored, number of subjects",[9],61
same,"Time to radiographic progression: Event, % of subjects",[9],(57.0%)
same,"Time to radiographic progression: Event, number of subjects",[9],81
same,Time to symptomatic skeletal event: 6-month event-free rate,[9],0.844
same,Time to symptomatic skeletal event: 12-month event-free rate,[9],0.543
same,Time to symptomatic skeletal event: 18-month event-free rate,[9],0.323
same,Time to symptomatic skeletal event: 24-month event-free rate,[9],0.323
same,"Time to symptomatic skeletal event: Censored, % of subjects",[9],(67.6%)
same,"Time to symptomatic skeletal event: Censored, number of subjects",[9],96
same,"Time to symptomatic skeletal event: Event, % of subjects",[9],(32.4%)
same,rPFS: 6-month event-free rate,[9],0.572
same,rPFS: 12-month event-free rate,[9],0.215
same,rPFS: 18-month event-free rate,[9],0.043
same,"rPFS: Censored, % of subjects",[9],(38.7%)
same,"rPFS: Censored, number of subjects",[9],55
same,"rPFS: Event, % of subjects",[9],(61.3%)
same,"rPFS: Event, number of subjects",[9],87
same,"Time to PSA progression: Event, % of subjects",[10],60%
same,"rPFS: Event, % of subjects",[10],61%
same,"Time to PSA progression: time to event, 25th percentile",[11],3.48 months
same,"Time to PSA progression: time to event, 75th percentile",[11],11.07 months
